In ChEMBL document CHEMBL5036317, “Identification of Unique Quinazolone Thiazoles as Novel Structural Scaffolds for Potential Gram-Negative Bacterial Conquerors” (J Med Chem, 2021) one finds MIC and HC50 data, which are given here for nine compounds.

The structures appear in SMILES notation. Values after ≈ are worked out from the molar mass of the structure shown. Some results are limits rather than exact numbers.

For series [1], the system named is Staphylococcus aureus. Nature of the series: Antibacterial activity against Staphylococcus aureus ATCC 25923 assessed as inhibition of bacterial growth measured after 24 hrs by two-fold serial dilution method. The format is functional.
Series [2] concerns Escherichia coli. Nature of the series: Antibacterial activity against Escherichia coli assessed as inhibition of bacterial growth measured after 24 hrs by two-fold serial dilution method. The format is functional.
Series [3] can be described thus: Haemolytic activity in human erythrocytes incubated for 2 hrs. The class given is ADME, cell-based, Erythrocyte.
In series [4] the test system is Escherichia coli. In words: Antibacterial activity against Escherichia coli ATCC 25922 assessed as inhibition of bacterial growth measured after 24 hrs by two-fold serial dilution method. The format is functional.
For series [5], the system named is Pseudomonas aeruginosa. In words: Antibacterial activity against Pseudomonas aeruginosa assessed as inhibition of bacterial growth measured after 24 hrs by two-fold serial dilution method. The format is functional.
The subject of series [6] is Staphylococcus aureus. In words: Antibacterial activity against Staphylococcus aureus assessed as inhibition of bacterial growth measured after 24 hrs by two-fold serial dilution method. The format is functional.
Series [7] has as its system Staphylococcus aureus. Nature of the series: Antibacterial activity against methicillin-resistant Staphylococcus aureus assessed as inhibition of bacterial growth measured after 24 hrs by two-fold serial dilution method. The format is functional.
The test system of another series is Enterococcus faecalis. Nature of the series: Antibacterial activity against Enterococcus faecalis assessed as inhibition of bacterial growth measured after 24 hrs by two-fold serial dilution method. The class given is functional.
Another series relates to Acinetobacter baumannii. In words: Antibacterial activity against Acinetobacter baumanii assessed as inhibition of bacterial growth measured after 24 hrs by two-fold serial dilution method. The class given is functional.
The subject of another series is Klebsiella pneumoniae. In words: Antibacterial activity against Klebsiella pneumoniae assessed as inhibition of bacterial growth measured after 24 hrs by two-fold serial dilution method. The format is functional.
Series [8] has as its system Staphylococcus aureus. In words: Antibacterial activity against Staphylococcus aureus ATCC 29213 assessed as inhibition of bacterial growth measured after 24 hrs by two-fold serial dilution method. The format is functional.
Series [9] has as its system Pseudomonas aeruginosa. Nature of the series: Antibacterial activity against Pseudomonas aeruginosa ATCC 27853 assessed as inhibition of bacterial growth measured after 24 hrs by two-fold serial dilution method. The class given is functional.

As to `O=C(/C(=C/c1ccc[nH]1)n1cnc2cc(Cl)ccc2c1=O)c1nccs1`, the minimal inhibitory concentration (MIC) – broadly, the lowest concentration that inhibits growth of the organism – in the series on Staphylococcus aureus [1] was determined as 512 µg/mL (≈ 1340 µM); with Escherichia coli [2], 256 µg/mL (≈ 669 µM); with Escherichia coli [4] it was 64 µg/mL (≈ 167 µM); in the series on Pseudomonas aeruginosa [5], 256 µg/mL (≈ 669 µM); with Staphylococcus aureus [6] it was 512 µg/mL (≈ 1340 µM); in the series on Staphylococcus aureus [7] it was 512 µg/mL (≈ 1340 µM). In addition, the MIC with Enterococcus faecalis amounted to 512 µg/mL (≈ 1340 µM); in the series on Acinetobacter baumannii, 64 µg/mL (≈ 167 µM); with Klebsiella pneumoniae, 256 µg/mL (≈ 669 µM); in the series on Staphylococcus aureus [8] it was 2 µg/mL (≈ 5.22 µM); in the series with Pseudomonas aeruginosa [9] it was 256 µg/mL (≈ 669 µM). In [3], the 50% haemolytic concentration (HC50) (as a rule, the concentration that lyses half of the red blood cells) at 2 h was 203 µg/mL.

On to `Cc1ccc(/C=C(/C(=O)c2nccs2)n2cnc3cc(Cl)ccc3c2=O)cc1`, for which the MIC worked out at 2 µg/mL (≈ 4.9 µM) with Staphylococcus aureus [1]; 32 µg/mL (≈ 78.5 µM) in the series on Escherichia coli [2]; 1 µg/mL (≈ 2.45 µM) in the series with Escherichia coli [4]; 4 µg/mL (≈ 9.81 µM) with Pseudomonas aeruginosa [5]; 4 µg/mL (≈ 9.81 µM) in the series on Staphylococcus aureus [6]; 64 µg/mL (≈ 157 µM) in the series with Staphylococcus aureus [7]. Further, the MIC with Enterococcus faecalis turned out to be 8 µg/mL (≈ 19.6 µM); with Acinetobacter baumannii, 1 µg/mL (≈ 2.45 µM); with Klebsiella pneumoniae it was 128 µg/mL (≈ 314 µM); in the series with Staphylococcus aureus [8], 4 µg/mL (≈ 9.81 µM); in the series with Pseudomonas aeruginosa [9], 1 µg/mL (≈ 2.45 µM). Further, in series [3], the HC50 at 2 h is more than 250 µg/mL.

As to `COc1ccc(/C=C(/C(=O)c2nccs2)n2cnc3cc(Cl)ccc3c2=O)cc1`, the minimal inhibitory concentration (MIC) was found to be 4 µg/mL (≈ 9.44 µM) in the series on Staphylococcus aureus [1]; 32 µg/mL (≈ 75.5 µM) with Escherichia coli [2]; 32 µg/mL (≈ 75.5 µM) in the series with Escherichia coli [4]; 32 µg/mL (≈ 75.5 µM) in the series with Pseudomonas aeruginosa [5]; 64 µg/mL (≈ 151 µM) with Staphylococcus aureus [6]; 8 µg/mL (≈ 18.9 µM) with Staphylococcus aureus [7]. Besides, the minimal inhibitory concentration (MIC) in the series with Enterococcus faecalis was found to be 32 µg/mL (≈ 75.5 µM); in the series on Acinetobacter baumannii, 512 µg/mL (≈ 1210 µM); in the series with Klebsiella pneumoniae, 512 µg/mL (≈ 1210 µM); with Staphylococcus aureus [8], 4 µg/mL (≈ 9.44 µM); in the series on Pseudomonas aeruginosa [9], 32 µg/mL (≈ 75.5 µM). Besides, the HC50 at 2 h in [3] came out at 245 µg/mL.

As to `O=C(/C(=C/c1ccc([N+](=O)[O-])cc1)n1cnc2cc(Cl)ccc2c1=O)c1nccs1`, the minimum inhibitory concentration (MIC) in the series with Staphylococcus aureus [1] was determined as 4 µg/mL (≈ 9.11 µM); in the series on Escherichia coli [2] it was 64 µg/mL (≈ 146 µM); with Escherichia coli [4] it was 2 µg/mL (≈ 4.56 µM); with Pseudomonas aeruginosa [5] it was 4 µg/mL (≈ 9.11 µM); in the series on Staphylococcus aureus [6], 2 µg/mL (≈ 4.56 µM); in the series with Staphylococcus aureus [7], 8 µg/mL (≈ 18.2 µM). Moreover, the minimal inhibitory concentration (MIC) worked out at 2 µg/mL (≈ 4.56 µM) in the series with Enterococcus faecalis; 4 µg/mL (≈ 9.11 µM) with Acinetobacter baumannii; 16 µg/mL (≈ 36.5 µM) in the series on Klebsiella pneumoniae; 2 µg/mL (≈ 4.56 µM) with Staphylococcus aureus [8]; 4 µg/mL (≈ 9.11 µM) in the series on Pseudomonas aeruginosa [9]. The compound further came in with a 50% haemolytic concentration (HC50) at 2 h in [3] of more than 250 µg/mL.

With `O=C(/C(=C/c1ccc(C(F)(F)F)cc1)n1cnc2c(Cl)cc(Cl)cc2c1=O)c1nccs1`, the MIC in the series on Staphylococcus aureus [1] worked out at 8 µg/mL (≈ 16.1 µM); with Escherichia coli [2] it was 4 µg/mL (≈ 8.06 µM); in the series on Escherichia coli [4], 4 µg/mL (≈ 8.06 µM); in the series on Pseudomonas aeruginosa [5], 8 µg/mL (≈ 16.1 µM); in the series on Staphylococcus aureus [6] it was 128 µg/mL (≈ 258 µM); in the series with Staphylococcus aureus [7] it was 4 µg/mL (≈ 8.06 µM). Besides, the MIC in the series with Enterococcus faecalis is 64 µg/mL (≈ 129 µM); in the series on Acinetobacter baumannii, 1 µg/mL (≈ 2.01 µM); in the series on Klebsiella pneumoniae, 1 µg/mL (≈ 2.01 µM); in the series on Staphylococcus aureus [8], 8 µg/mL (≈ 16.1 µM); with Pseudomonas aeruginosa [9], 1 µg/mL (≈ 2.01 µM). This compound registered an HC50 at 2 h in series [3] of more than 250 µg/mL.

`O=C(/C(=C/c1ccc(C(F)(F)F)cc1)n1cnc2cc(F)ccc2c1=O)c1nccs1`: the MIC worked out at 2 µg/mL (≈ 4.49 µM) with Staphylococcus aureus [1]; 8 µg/mL (≈ 18 µM) in the series on Escherichia coli [2]; 4 µg/mL (≈ 8.98 µM) in the series on Escherichia coli [4]; 16 µg/mL (≈ 35.9 µM) in the series on Pseudomonas aeruginosa [5]; 16 µg/mL (≈ 35.9 µM) with Staphylococcus aureus [6]; 8 µg/mL (≈ 18 µM) in the series with Staphylococcus aureus [7]. Moreover, the MIC with Enterococcus faecalis came out at 4 µg/mL (≈ 8.98 µM); in the series with Acinetobacter baumannii, 1 µg/mL (≈ 2.25 µM); in the series with Klebsiella pneumoniae, 2 µg/mL (≈ 4.49 µM); in the series on Staphylococcus aureus [8], 4 µg/mL (≈ 8.98 µM); in the series on Pseudomonas aeruginosa [9], 4 µg/mL (≈ 8.98 µM). This compound also yielded an HC50 at 2 h in [3] of more than 250 µg/mL.

As for `O=C(/C(=C/c1ncc[nH]1)n1cnc2cc(Cl)ccc2c1=O)c1nccs1`, the minimal inhibitory concentration (MIC) in the series with Staphylococcus aureus [1] amounted to 512 µg/mL (≈ 1330 µM); in the series on Escherichia coli [2], 256 µg/mL (≈ 667 µM); in the series with Escherichia coli [4], 64 µg/mL (≈ 167 µM); with Pseudomonas aeruginosa [5] it was 16 µg/mL (≈ 41.7 µM); in the series with Staphylococcus aureus [6], 512 µg/mL (≈ 1330 µM); in the series with Staphylococcus aureus [7] it was 512 µg/mL (≈ 1330 µM). Also, the MIC with Enterococcus faecalis was found to be 512 µg/mL (≈ 1330 µM); in the series on Acinetobacter baumannii, 512 µg/mL (≈ 1330 µM); in the series with Klebsiella pneumoniae, 64 µg/mL (≈ 167 µM); with Staphylococcus aureus [8] it was 512 µg/mL (≈ 1330 µM); with Pseudomonas aeruginosa [9], 16 µg/mL (≈ 41.7 µM). In addition, the 50% haemolytic concentration (HC50) at 2 h in [3] was more than 250 µg/mL.

`O=C(/C(=C/c1nccs1)n1cnc2cc(Cl)ccc2c1=O)c1nccs1`: the MIC came to 2 µg/mL (≈ 4.99 µM) in the series with Staphylococcus aureus [1]; 16 µg/mL (≈ 39.9 µM) in the series on Escherichia coli [2]; 4 µg/mL (≈ 9.98 µM) in the series on Escherichia coli [4]; 16 µg/mL (≈ 39.9 µM) in the series on Pseudomonas aeruginosa [5]; 2 µg/mL (≈ 4.99 µM) in the series on Staphylococcus aureus [6]; 4 µg/mL (≈ 9.98 µM) in the series on Staphylococcus aureus [7]. Also, the minimum inhibitory concentration (MIC) with Enterococcus faecalis came to 1 µg/mL (≈ 2.49 µM); in the series with Acinetobacter baumannii it was 16 µg/mL (≈ 39.9 µM); with Klebsiella pneumoniae, 4 µg/mL (≈ 9.98 µM); in the series with Staphylococcus aureus [8], 2 µg/mL (≈ 4.99 µM); in the series on Pseudomonas aeruginosa [9], 4 µg/mL (≈ 9.98 µM). For the same compound, the 50% haemolytic concentration (HC50) at 2 h in series [3] is 115 µg/mL.

For the compound `O=C(/C(=C/c1ccc(F)cc1F)n1cnc2cc(Cl)ccc2c1=O)c1nccs1`, the MIC in the series on Staphylococcus aureus [1] amounted to 2 µg/mL (≈ 4.65 µM); in the series with Escherichia coli [2] it was 8 µg/mL (≈ 18.6 µM); in the series on Escherichia coli [4] it was 2 µg/mL (≈ 4.65 µM); with Pseudomonas aeruginosa [5], 8 µg/mL (≈ 18.6 µM); with Staphylococcus aureus [6], 8 µg/mL (≈ 18.6 µM); in the series with Staphylococcus aureus [7], 8 µg/mL (≈ 18.6 µM). Besides, the MIC was 8 µg/mL (≈ 18.6 µM) in the series with Enterococcus faecalis; 2 µg/mL (≈ 4.65 µM) in the series with Acinetobacter baumannii; 8 µg/mL (≈ 18.6 µM) with Klebsiella pneumoniae; 8 µg/mL (≈ 18.6 µM) in the series on Staphylococcus aureus [8]; 4 µg/mL (≈ 9.31 µM) in the series with Pseudomonas aeruginosa [9]. Also, the HC50 at 2 h in [3] turned out to be 203 µg/mL.
